What all share (assay type): cell-based, P. falciparum
Experiment [1] concerns ring-stage PA^CSA IE cytoadhesion to SBEC 1D. The experiment is described as follows: Ring-stage IE cytoadhesion inhibition assay on SBEC 1D (Example 1). The note with it: for inhibitory activity on ring-stage IE cytoadhesion to SBEC 1D (in words): ring-stage PA^CSA IE 8 hours post-invasion, glycosaminoglycans, enzymes on target cells, thrombospondin; for sensitivity of ring-stage IE^CSA cytoadhesion to inhibitor: 0.1 mg/ml CSA, or target cells pretreated with 1 U/ml chondroitinase ABC, until the 16th hour after invasion; for time after invasion of maximal inhibition of IE^CSA binding: highly synchronized PA^CSA IE tested every 4 hours throughout the cycle. Here is the method:
Gelatin-enriched preparations of mature-stage IE were resuspended at a concentration of 5×10^6 IE/ml in cytoadhesion medium at pH 6.8. Cytoadhesion microassays were then performed on 12-well IFA slides (Institut Pasteur, Paris) as previously described (Pouvelle, B. Fusai, T. Lepolard, C. & Gysin, J. biological and biochemical characteristics of cytoadhesion of Plasmodium falciparum-infected erythrocytes to chondroitin-4-sulfate. Infect. Immun. 66, 4950-4956 (1998)).
Ring-stage cytoadhesion assays were performed with endothelial cells as described above and with placental cryosections as previously described (Gysin, J., Pouvelle, B., Le Tonqueze, M., Edelman, L. & Boffa, M. C., Chondroitin sulfate of thrombomodulin is an adhesion receptor for Plasmodium falciparum-infected erythrocyics. Mol. Biochem. Parasitol. 88, 267-271 (1997)), with 1 to 10% parasitaemia (a 1×10^7 IE/ml suspension).
For cytoadhesion inhibition assays, the IE were incubated with SBEC in the presence of 2.5 μg/ml thrombospondin, 0.1 mg/ml soluble CSA, dermatan sulphate (CSB), chondroitin-6-sulphate (CSC), keratin sulphate (Ker), hyaluronic acid (HA), heparin (Hep) (Fluka, France), or with SBEC previously incubated for 1 hour at 37° C. with 1 U/ml chondrotinase ABC (Fluka, France), 1 to 10 U/ml heparinase III (Hepase III) (Sigma, France) or 5 μg/ml anti-CD36 FA6-152 Mab (gift from Dr. Edelman). Inhibition assays were also carried out in the presence of sera obtained from Senegalese and Cameroonian patients living in areas of endemic malaria. The sera were obtained from primigravida and multigravida women, an adult and a child, absorbed onto O^+ human blood and SBEC ID, and tested at a dilution of 1/20. The results were compared to those for cytoadhesion in the presence of a 1/20 dilution of a pool of control sera from volunteers who had never contacted malaria.
The protease sensitivity of ring-stage IE cytoadhesion was analyzed using 5 μl of packed PA^CSA IE (8 hours post-invasion). IE were incubated with 10 or 100 μg/ml of trypsin TPCK (Signa) or 100 μg/ml of α-chymotrypsin TLCK (Sigma) for 30 minutes at 37° C. The digestion was stopped by adding culture medium containing 10% human plasma. The cells were then washed in cytoadhesion medium and allowed to cytoadhere to SBEC 1D, as previously described, using untreated PA^CSA as a control.

Experiment [2] has as its system adherent rIE^CSA/nE and mature IE^CSA on SBEC 1D. As to the kind of experiment: Cytoadhesion inhibition and desequestration under flow conditions at 0.05 Pa. The note with it: B4 200 μg/ml, CSA 10 μg/ml final.
Protocol: In short: Four serial 7 μm normal human placenta cryosections (each of approximately 4 mm×4 mm) of the maternal compartment were mounted on a microscopic slide 75-25 mm and fixed with 0.5% para-formaldehyde in PBS at pH 7.2, for 2 hours at room temperature. After washing several times with PBS and then with RPMI 1640 pH 6.8, the slide is mounted on a perfusing chamber (Immunetics, France). An equipart mixture of 8±4 hours old synchronized rIE^CSA (including nE from the same culture) and 34±4 hours old IE^CSA at a final hematocrit of 25% in RPMI 1640, pH 7.2 were then flow through the chamber for 10 min at 0.05 Pascals. After rinsing for 10 min with the medium at the same shear stress, 100 ug/ml of a 50 kDa CSA (Fluka, France) dissolved in RPMI or 200 ug/ml of mAbs was flushed through the chamber for 10 min at the same shear stress. Slides from 3 experiments were recovered and stained by Giemsa. Mature IE, rIE and nE were counted and the result expressed as arithmetic mean percentage of bound erythrocytes±SD/20 fields of 100× Oil magnification as described elsewhere (Gysin, J., B. Pouvelle, N. Fievet, A. Scherf, and C. Lepolard. 1999. Ex vivo desequestration of Plasmodium falciparum-infected erythrocytes from human placenta by chondroitin sulfate A. Infect Immun. 67:6596-602).
In experiment [3] the test system is cytoadhesion of IE on endothelial cells or placenta cryosections. As to the kind of experiment: Stage-specific cytoadhesion inhibition on endothelial cells or placenta cryosections (discussion). Here is the method: Cytoadhesion inhibition and disruption assays were performed on SBEC 1D cells grown to confluence on 12-dot IFA slides as described elsewhere (Pouvelle, B., P. Meyer, C. Robert, L. Bardel and J. Gysin. 1997. Chondroitin-4-sulfate impairs in vitro and in vivo cytoadherence of Plasmodium falciparum infected erythrocytes. Mol Med. 3:508-18) by assessing the laboratory CSA-binding strains FCR3, FCBR, BXII, SUK, HB, IBR and the placenta isolates no. 24, 42,42DJ, 193 and 939. In short: 20 μl of a mixture of synchronized rIE with nE or mIE from corresponding cultures at a parasitaemia of 4-15% for a total 10^7 IE/ml RPMI 1640, pH6.8 were layered per dot of confluent SBEC 1D cells. For the inhibition assay, 20 μl of each mAb at a concentration of 0.2 to 200 μg/ml was deposited simultaneously with rIE or IE and corresponding nE/dot for 2 hours at +37° C. For the disruption assay the same mAbs were added after a one hour preincubation of IEs and nEs with endothelial cells for an additional 1 hour. Unbound erythrocytes were removed by vigorously washing the slides in RPMI 1640, pH6.8. Bound IE and nE were fixed with 0.25% glutaraldehyde in PBS pH7.2. The inhibition and disruption of cytoadhesion was expressed as bound IE and nE/mm^2 of confluent endothelial cells in the presence of mAbs, in comparison to unrelated mouse IgG of the same IgG isotype (Sigma, USA). […]

The text below walks through data of patent publication US20050169928A1, “Antibodies which bind to proteins involved in cytoadhesion of plasmodlum falciparum ring-stage-infected erythrocytes” (INSTITUT PASTEUR, priority 2000, published 2005).

Regarding “Thrombospondin: mature-stage IE adhesion receptor protein tested at 2.5 μg/ml”, in experiment [1], the “inhibitory activity on ring-stage IE cytoadhesion to SBEC 1D (in words)” value (from here on “inhibitory activity”) is “no effect”.

With chondroitin-sulphate A [CSA], in experiment [1], the “sensitivity of ring-stage IE^CSA cytoadhesion to inhibitor” value is recorded as “insensitive” and the “time after invasion of maximal inhibition of IE^CSA binding” value was found to be 24 h. Also, in experiment [2], the “desequestration of adherent mature IE^CSA by flushing” value is on record as “removed only the mature forms”. Moreover, the “inhibition of cytoadhesion of mature blood stages” value in experiment [3] (mature blood stages) is given as more than 90%. For the same molecule, the “inhibition of cytoadhesion of young trophozoites” value in experiment [3] (young trophozoites (16-20 hours), RSP-2 and PfEMP1 both expressed) is recorded as not above 25%.

On to chondroitinase ABC, for which, in experiment [1], the “sensitivity of ring-stage IE^CSA cytoadhesion to inhibitor” value is listed as “insensitive”, the “time after invasion of maximal inhibition of IE^CSA binding” value amounted to 24 h and the “inhibitory activity” value is given as “no significant inhibitory activity”.

Consider dermatan-sulphate, for which the “inhibitory activity” value in experiment [1] is given as “not specific”.

Regarding heparin, the “inhibition of ring-stage cytoadhesion” value in experiment [1] (Heparin 100 μg/ml, heparinase treatment of target cells, SBEC 1D) was “about 50%”.

Consider hyaluronate lyase, for which the “inhibitory activity” value in experiment [1] is given as “low level of inhibitory activity”.

With hyaluronic acid, the “inhibitory activity” value in experiment [1] is recorded as “no activity”.

B1: trypsin: protease used to treat ring-stage IE (protein, UniProt P00760 24-246, looked up)
Serine protease 1: IVGGYTCGANTVPYQVSLNSGYHFCGGSLINSQWVVSAAHCYKSGIQVRLGEDNINVVEGNEQFISASKSIVHPSYNSNTLNNDIMLIKLKSAASLNSRVASISLPTSCASAGTQCLISGWGNTKSSGTSYPDVLKCLKAPILSDSSCKSAYPGQITSNMFCAGYLEGGKDSCQGDSGGPVVCSGKLQGIVSWGSGCAQKNKPGVYTKVCNYVSWIKQTIASN
modifications: TPCK-treated
notes: protease used to treat ring-stage IE
Consider B1, for which the “inhibition of ring-stage IE adhesion after protease treatment of IE” value in experiment [1] (protease concentration 100 μg/ml) was “substantially inhibited”.
